The values that follow come from ChEMBL document CHEMBL1671662, “In vitro activities of telavancin and six comparator agents against anaerobic bacterial isolates” (2009).

Common to all, as to type: functional
One assay concerns Actinomyces naeslundii. The assay is described as follows: Antibacterial activity against Actinomyces naeslundii by CLSI M11-A6 agar dilution method in presence of beta-lactamase inhibitor Sulbactam. (Agar dilution tests growth on a series of plates holding different concentrations.)
The subject of another assay is Ruminococcus lactaris. The assay is described as follows: Antibacterial activity against Ruminococcus lactaris by CLSI M11-A6 agar dilution method in presence of beta-lactamase inhibitor Sulbactam.
The next assay relates to Prevotella bivia. Kind of assay: Antibacterial activity against Prevotella bivia by CLSI M11-A6 agar dilution method in presence of beta-lactamase inhibitor Sulbactam.
Assay [1] concerns Enterocloster clostridioformis. The assay is described as follows: Antibacterial activity against Clostridium clostridioforme by CLSI M11-A6 agar dilution method in presence of beta-lactamase inhibitor Sulbactam.
A further assay concerns Fusobacterium varium. The assay is described as follows: Antibacterial activity against Fusobacterium varium by CLSI M11-A6 agar dilution method in presence of beta-lactamase inhibitor Sulbactam.
Another assay has as its system Anaerococcus tetradius. The assay is described as follows: Antibacterial activity against Anaerococcus tetradius by CLSI M11-A6 agar dilution method in presence of beta-lactamase inhibitor Sulbactam.

A value given as a limit tells only on which side of the number the result lay.

For orientation: MIC50 means an inhibitory concentration at the 50% level, which refers to growth in some studies and to a panel of isolates in others. The MIC90 is the lowest concentration that inhibits either 90% of growth or 90% of the strains tested, depending on the study.

Regarding `CC1(C)S[C@@H]2[C@H](NC(=O)[C@H](N)c3ccccc3)C(=O)N2[C@H]1C(=O)O` [AMPICILLIN], the MIC50 in the assay with Actinomyces naeslundii was 0.25 µg/mL; in the assay with Ruminococcus lactaris, at most 0.12 µg/mL; in the assay with Prevotella bivia it was at most 0.12 µg/mL; in assay [1], 2 µg/mL; in the assay on Fusobacterium varium, 2 µg/mL; in the assay with Anaerococcus tetradius it was 0.25 µg/mL. The MIC90 stood at 1 µg/mL with Actinomyces naeslundii; 1 µg/mL in the assay with Ruminococcus lactaris; 2 µg/mL with Prevotella bivia; 16 µg/mL in assay [1]; 16 µg/mL with Fusobacterium varium; 0.5 µg/mL in the assay on Anaerococcus tetradius.
